From PubChem BioAssay (NCI)
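Dose response: 5 concentrations. Exposure: 48 h. Format: 96-well plates. Endpoint: linear interpolation; highest concentration if not reached. TGI: total growth inhibition.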

Tests used:
Experiment in all cases: NCI-60 cell line screen, 48 h
SR leukemia = system: SR leukemia
HOP-92 NSCLC = system: HOP-92 NSCLC
RXF 393 renal = system: RXF 393 renal
OVCAR-4 ovarian = system: OVCAR-4 ovarian
MDA-N = system: MDA-N
SK-OV-3 ovarian = system: SK-OV-3 ovarian
COLO 205 colon = system: COLO 205 colon
SF-295 CNS = system: SF-295 CNS
LOX IMVI melanoma = system: LOX IMVI melanoma
SW-620 colon = system: SW-620 colon
SK-MEL-28 melanoma = system: SK-MEL-28 melanoma
IGROV1 ovarian = system: IGROV1 ovarian
HCC-2998 colon = system: HCC-2998 colon
OVCAR-8 ovarian = system: OVCAR-8 ovarian
NCI-H460 lung = system: NCI-H460 lung
HL-60(TB) leukemia = system: HL-60(TB) leukemia
DU-145 prostate = system: DU-145 prostate
NCI-H226 lung = system: NCI-H226 lung
HCT-15 colon = system: HCT-15 colon
U251 CNS = system: U251 CNS
BT-549 breast = system: BT-549 breast
HT29 colon = system: HT29 colon
HS 578T breast = system: HS 578T breast
MALME-3M melanoma = system: MALME-3M melanoma
OVCAR-3 ovarian = system: OVCAR-3 ovarian
PC-3 prostate = system: PC-3 prostate
NCI/ADR-RES ovarian = system: NCI/ADR-RES ovarian
786-0 renal = system: 786-0 renal
T-47D breast = system: T-47D breast
SF-539 CNS = system: SF-539 CNS
A498 renal = system: A498 renal
A549 NSCLC = system: A549 NSCLC
NCI-H23 lung = system: NCI-H23 lung
KM12 colon = system: KM12 colon
MDA-MB-231 breast = system: MDA-MB-231 breast
SNB-75 CNS = system: SNB-75 CNS
SF-268 CNS = system: SF-268 CNS
ACHN renal = system: ACHN renal
MCF7 breast = system: MCF7 breast
TK-10 renal = system: TK-10 renal
HCT-116 colon = system: HCT-116 colon
UACC-257 melanoma = system: UACC-257 melanoma
UO-31 renal = system: UO-31 renal
RPMI-8226 leukemia = system: RPMI-8226 leukemia
M14 melanoma = system: M14 melanoma
HOP-62 NSCLC = system: HOP-62 NSCLC
SN12C renal = system: SN12C renal
EKVX NSCLC = system: EKVX NSCLC
UACC-62 melanoma = system: UACC-62 melanoma
MOLT-4 leukemia = system: MOLT-4 leukemia
K-562 leukemia = system: K-562 leukemia
MDA-MB-435 = system: MDA-MB-435
NCI-H522 lung = system: NCI-H522 lung
CCRF-CEM leukemia = system: CCRF-CEM leukemia
SNB-19 CNS = system: SNB-19 CNS
SK-MEL-5 melanoma = system: SK-MEL-5 melanoma
SK-MEL-2 melanoma = system: SK-MEL-2 melanoma
OVCAR-5 ovarian = system: OVCAR-5 ovarian
CAKI-1 renal = system: CAKI-1 renal

**Q.** With [N-]=[N+]=NC1(N=[N+]=[N-])C(=O)NN=C(c2ccccc2)C1=O (stereo unspecified) as the compound, how does the TGI (SR leukemia) read?
**A.** 75.5 µM

**Q.** And the TGI (HOP-92 NSCLC)?
**A.** > 100 µM

**Q.** And the TGI (RXF 393 renal)?
**A.** > 100 µM

**Q.** And the TGI (OVCAR-4 ovarian)?
**A.** > 100 µM

**Q.** And the TGI (MDA-N)?
**A.** 61.3 µM

**Q.** And the TGI (SK-OV-3 ovarian)?
**A.** > 100 µM

**Q.** And the TGI (COLO 205 colon)?
**A.** > 100 µM

**Q.** And the TGI (SF-295 CNS)?
**A.** > 100 µM

**Q.** And the TGI (LOX IMVI melanoma)?
**A.** 92.9 µM

**Q.** What about the TGI (SW-620 colon) of the same compound?
**A.** > 100 µM

**Q.** What about the TGI (SK-MEL-28 melanoma) of the same compound?
**A.** 31.9 µM

**Q.** What about the TGI (IGROV1 ovarian) of the same compound?
**A.** > 100 µM

**Q.** And the TGI (HCC-2998 colon)?
**A.** > 100 µM

**Q.** And the TGI (OVCAR-8 ovarian)?
**A.** > 100 µM

**Q.** What about the TGI (NCI-H460 lung) of the same compound?
**A.** > 100 µM

**Q.** What about the TGI (HL-60(TB) leukemia) of the same compound?
**A.** > 100 µM

**Q.** What about the TGI (DU-145 prostate) of the same compound?
**A.** > 100 µM

**Q.** What about the TGI (NCI-H226 lung) of the same compound?
**A.** > 100 µM

**Q.** What about the TGI (HCT-15 colon) of the same compound?
**A.** > 100 µM

**Q.** And the TGI (U251 CNS)?
**A.** > 100 µM

**Q.** What about the TGI (BT-549 breast) of the same compound?
**A.** > 100 µM

**Q.** What about the TGI (HT29 colon) of the same compound?
**A.** > 100 µM

**Q.** What about the TGI (HS 578T breast) of the same compound?
**A.** > 100 µM

**Q.** What about the TGI (MALME-3M melanoma) of the same compound?
**A.** > 100 µM

**Q.** What about the TGI (OVCAR-3 ovarian) of the same compound?
**A.** > 100 µM

**Q.** What about the TGI (PC-3 prostate) of the same compound?
**A.** > 100 µM

**Q.** What about the TGI (NCI/ADR-RES ovarian) of the same compound?
**A.** > 100 µM

**Q.** What about the TGI (786-0 renal) of the same compound?
**A.** > 100 µM

**Q.** And the TGI (T-47D breast)?
**A.** 94.3 µM

**Q.** And the TGI (SF-539 CNS)?
**A.** > 100 µM

**Q.** What about the TGI (A498 renal) of the same compound?
**A.** > 100 µM

**Q.** What about the TGI (A549 NSCLC) of the same compound?
**A.** > 100 µM

**Q.** And the TGI (NCI-H23 lung)?
**A.** > 100 µM

**Q.** And the TGI (KM12 colon)?
**A.** > 100 µM

**Q.** What about the TGI (MDA-MB-231 breast) of the same compound?
**A.** > 100 µM

**Q.** And the TGI (SNB-75 CNS)?
**A.** > 100 µM

**Q.** And the TGI (SF-268 CNS)?
**A.** 28.4 µM

**Q.** And the TGI (ACHN renal)?
**A.** > 100 µM

**Q.** What about the TGI (MCF7 breast) of the same compound?
**A.** > 100 µM

**Q.** What about the TGI (TK-10 renal) of the same compound?
**A.** > 100 µM

**Q.** And the TGI (HCT-116 colon)?
**A.** 38.7 µM

**Q.** What about the TGI (UACC-257 melanoma) of the same compound?
**A.** > 100 µM

**Q.** And the TGI (UO-31 renal)?
**A.** > 100 µM

**Q.** What about the TGI (RPMI-8226 leukemia) of the same compound?
**A.** > 100 µM

**Q.** And the TGI (M14 melanoma)?
**A.** > 100 µM

**Q.** What about the TGI (HOP-62 NSCLC) of the same compound?
**A.** > 100 µM

**Q.** What about the TGI (SN12C renal) of the same compound?
**A.** > 100 µM

**Q.** What about the TGI (EKVX NSCLC) of the same compound?
**A.** > 100 µM

**Q.** And the TGI (UACC-62 melanoma)?
**A.** > 100 µM

**Q.** What about the TGI (MOLT-4 leukemia) of the same compound?
**A.** 73.6 µM

**Q.** What about the TGI (K-562 leukemia) of the same compound?
**A.** > 100 µM

**Q.** What about the TGI (MDA-MB-435) of the same compound?
**A.** 42.6 µM

**Q.** And the TGI (NCI-H522 lung)?
**A.** > 100 µM

**Q.** And the TGI (CCRF-CEM leukemia)?
**A.** 83.9 µM

**Q.** For CC1(C)SC2C(C(=O)O)N=C(Cc3ccccc3)N2C1C(=O)O (stereo unspecified), which TGI (SR leukemia) is on record?
**A.** > 100 µM

**Q.** And the TGI (HOP-92 NSCLC)?
**A.** > 100 µM

**Q.** What about the TGI (RXF 393 renal) of the same compound?
**A.** > 100 µM

**Q.** And the TGI (OVCAR-4 ovarian)?
**A.** > 100 µM

**Q.** What about the TGI (MDA-N) of the same compound?
**A.** > 100 µM

**Q.** And the TGI (SK-OV-3 ovarian)?
**A.** > 100 µM

**Q.** What about the TGI (COLO 205 colon) of the same compound?
**A.** > 100 µM

**Q.** And the TGI (SF-295 CNS)?
**A.** > 100 µM

**Q.** And the TGI (LOX IMVI melanoma)?
**A.** 60.5 µM

**Q.** What about the TGI (SNB-19 CNS) of the same compound?
**A.** > 100 µM

**Q.** And the TGI (SW-620 colon)?
**A.** > 100 µM

**Q.** What about the TGI (SK-MEL-28 melanoma) of the same compound?
**A.** > 100 µM

**Q.** What about the TGI (IGROV1 ovarian) of the same compound?
**A.** > 100 µM

**Q.** And the TGI (HCC-2998 colon)?
**A.** 56.9 µM

**Q.** And the TGI (OVCAR-8 ovarian)?
**A.** > 100 µM

**Q.** And the TGI (NCI-H460 lung)?
**A.** > 100 µM

**Q.** What about the TGI (DU-145 prostate) of the same compound?
**A.** > 100 µM

**Q.** What about the TGI (NCI-H226 lung) of the same compound?
**A.** 51.3 µM

**Q.** And the TGI (HCT-15 colon)?
**A.** > 100 µM

**Q.** What about the TGI (U251 CNS) of the same compound?
**A.** > 100 µM

**Q.** And the TGI (BT-549 breast)?
**A.** > 100 µM

**Q.** What about the TGI (HT29 colon) of the same compound?
**A.** 29 µM

**Q.** What about the TGI (HS 578T breast) of the same compound?
**A.** 95.7 µM

**Q.** What about the TGI (MALME-3M melanoma) of the same compound?
**A.** > 100 µM

**Q.** What about the TGI (OVCAR-3 ovarian) of the same compound?
**A.** > 100 µM

**Q.** What about the TGI (PC-3 prostate) of the same compound?
**A.** > 100 µM

**Q.** And the TGI (NCI/ADR-RES ovarian)?
**A.** > 100 µM

**Q.** What about the TGI (786-0 renal) of the same compound?
**A.** 42.1 µM

**Q.** And the TGI (T-47D breast)?
**A.** 73.7 µM

**Q.** And the TGI (SK-MEL-5 melanoma)?
**A.** > 100 µM

**Q.** And the TGI (SF-539 CNS)?
**A.** 57.3 µM

**Q.** What about the TGI (A498 renal) of the same compound?
**A.** > 100 µM

**Q.** What about the TGI (A549 NSCLC) of the same compound?
**A.** > 100 µM

**Q.** What about the TGI (NCI-H23 lung) of the same compound?
**A.** > 100 µM

**Q.** What about the TGI (SK-MEL-2 melanoma) of the same compound?
**A.** > 100 µM

**Q.** And the TGI (KM12 colon)?
**A.** > 100 µM

**Q.** And the TGI (MDA-MB-231 breast)?
**A.** > 100 µM

**Q.** And the TGI (SNB-75 CNS)?
**A.** 49.2 µM

**Q.** What about the TGI (SF-268 CNS) of the same compound?
**A.** 98.1 µM

**Q.** What about the TGI (ACHN renal) of the same compound?
**A.** > 100 µM

**Q.** What about the TGI (OVCAR-5 ovarian) of the same compound?
**A.** > 100 µM

**Q.** What about the TGI (MCF7 breast) of the same compound?
**A.** > 100 µM

**Q.** What about the TGI (TK-10 renal) of the same compound?
**A.** 40.5 µM

**Q.** What about the TGI (HCT-116 colon) of the same compound?
**A.** > 100 µM

**Q.** What about the TGI (UACC-257 melanoma) of the same compound?
**A.** 49.2 µM

**Q.** What about the TGI (UO-31 renal) of the same compound?
**A.** 39.5 µM

**Q.** And the TGI (RPMI-8226 leukemia)?
**A.** > 100 µM

**Q.** What about the TGI (M14 melanoma) of the same compound?
**A.** > 100 µM

**Q.** And the TGI (HOP-62 NSCLC)?
**A.** > 100 µM

**Q.** What about the TGI (SN12C renal) of the same compound?
**A.** > 100 µM

**Q.** And the TGI (CAKI-1 renal)?
**A.** > 100 µM

**Q.** And the TGI (EKVX NSCLC)?
**A.** 29.7 µM

**Q.** What about the TGI (UACC-62 melanoma) of the same compound?
**A.** > 100 µM

**Q.** What about the TGI (MOLT-4 leukemia) of the same compound?
**A.** > 100 µM

**Q.** And the TGI (K-562 leukemia)?
**A.** > 100 µM

**Q.** What about the TGI (MDA-MB-435) of the same compound?
**A.** > 100 µM

**Q.** What about the TGI (NCI-H522 lung) of the same compound?
**A.** > 100 µM
